The numbers were not newly measured in publication PMC2866172 (Journal of medicinal chemistry, 2010), which cites them from elsewhere.

The subject of this data set is MTB enoyl-ACP reductase InhA. The following applies: on MTB enoyl-ACP reductase InhA; cited from earlier work.

For the compound `NC(=O)C1=CN([C@@H]2O[C@H](COP(=O)(O)OP(=O)(O)OC[C@H]3O[C@@H](n4cnc5c(N)ncnc54)[C@H](O)[C@@H]3O)[C@@H](O)[C@H]2O)C=C[C@@H]1C(=O)c1ccncc1` [INH-NAD adduct], the Residence time is 60 min.
